The text below walks through data of article PMC7892437 (Frontiers in Pharmacology, 2021).

For data set [1], the system named is SARS-CoV-2 BetaCoV/Shenzhen/SZTH-003/2020 strain. The experiment in a line: microbe, parasite or virus in culture. It counts as cell-based. To be noted: for inhibitory effect relative to Chloroquine diphosphate: authentic SARS-CoV-2 assay, in vitro.
The test system of data set [2] is VSV-SARS-CoV-2-Sdel18 pseudovirus. Description: microbe, parasite or virus in culture. The class given is cell-based.
In a further data set the test system is VSV-G. The class given is cell-based, vesicular stomatitis virus.
The next data set can be described thus: in vitro. As to conditions: hamster.
In another data set the test system is Ebola virus. To be noted: ref Johansen et al., 2013; cited from earlier work.
Setting [3] is: Severe acute respiratory syndrome coronavirus 2, Vero, 120 h.
The mark [4] stands for this setting: Pseudovirus, read-out: Co-treatment IC50.
The mark [5] stands for this setting: Pseudovirus, read-out: Pre-treatment IC50.
[6] abbreviates: Pseudovirus, read-out: Pre-treatment IC90.
Where [7] appears, read: Pseudovirus, read-out: Co-treatment IC90.

Values joined by “and” are separate entries in the source; they are usually repeats but may differ in a detail not shown here. Equal entries are not always repeated. Where two headings read alike, the source gives them in different places.

Regarding `CCCCc1oc2ccccc2c1C(=O)c1cc(I)c(OCCN(CC)CC)c(I)c1.Cl` [Amiodarone (hydrochloride)], the “effect on authentic SARS-CoV-2 virus infection” value in data set [1] (at a concentration of 100 μM) is recorded as “no effect”.
Usually IC50 stands for the concentration that inhibits the measured activity by half. As a reminder, the IC90 is the concentration needed for an effect of 90%. For the molecule `CCN(CC)CCCC(C)Nc1ccnc2cc(Cl)ccc12` (stereo not shown) [Chloroquine diphosphate], the IC50 was found to be 5.33 µM in data set [1] (setting [3]); 11.6 µM in data set [2] (Pseudovirus, 12 h); 27.6 µM in data set [2] (setting [4]); 9.27 µM in data set [2] (setting [5]). The IC90 in data set [1] (setting [3]) amounted to 12.9 µM; in data set [2] (Pseudovirus, 12 h), 85.2 µM; in data set [2] (setting [6]), 35.2 µM.
Consider `CN1CCc2c(c3ccccc3n2Cc2ccccc2)C1` [Mebhydrolin (napadisylate)], for which, in data set [2] (read-out: IC50), the half-maximal inhibitory concentration (IC50) was found to be 12.1 µM. Besides, in data set [2] (read-out: IC90), the concentration for an effect of 90% (IC90) came to 133 µM.
As for `CC[C@@H]1/C=C(\C)C[C@H](C)C[C@H](OC)[C@H]2O[C@@](O)(C(=O)C(=O)N3CCCC[C@H]3C(=O)O[C@H](/C(C)=C/[C@@H]3CC[C@H](Cl)[C@H](OC)C3)[C@H](C)[C@@H](O)CC1=O)[C@H](C)C[C@@H]2OC` [Pimecrolimus], in the data set with BHK21-hACE2 cells, the “cytotoxicity compared with the other selected drugs” value is reported as “more serious cytotoxic than other drugs”. The same molecule gave a concentration for an effect of 90% (IC90) in data set [2] of 32 µM. In data set [2] (Pseudovirus, 12 h), the concentration for half-maximal inhibition (IC50) amounted to 11.3 µM and the 90% effect concentration (IC90) is less than 50 µM.
With `NC(=O)c1ncn([C@@H]2O[C@H](CO)[C@@H](O)[C@H]2O)n1` [Ribavirin], the “inhibitory effect on VSV-G” value in the data set with VSV-G is “significant inhibitor effects”. For the same molecule, in data set [2] (Pseudovirus, 12 h), the 50% inhibitory concentration (IC50) is 9.29 µM and the IC90 was determined as 62.1 µM.
With `Cc1ccc(Sc2ccccc2N2CCNCC2)c(C)c1` [Vortioxetine], the concentration for half-maximal inhibition (IC50) came out at 8.03 µM in data set [1] (setting [3]); 7.16 µM in data set [2] (Pseudovirus, 12 h); 6.77 µM in data set [2] (setting [4]); 3 µM in data set [2] (setting [5]). The IC90 is 18.3 µM in data set [1] (setting [3]); 46.6 µM in data set [2]; less than 50 µM in data set [2] (Pseudovirus, 12 h); 22.3 µM in data set [2] (setting [7]); 13.8 µM in data set [2] (setting [6]). Moreover, in data set [1], the “inhibitory effect relative to Chloroquine diphosphate” value is listed as “comparable to Chloroquine diphosphate”. The CC50 in the data set “in vitro” (Co-treatment CC50) worked out at 27.1 µM; in the data set “in vitro” (Pre-treatment CC50), 28.5 µM.
In the case of `CCN(CC)CCOc1ccc(C(=C(Cl)c2ccccc2)c2ccccc2)cc1` [Clomiphene (citrate)], the IC90 in data set [1] (setting [3]) turned out to be 33.9 µM; in data set [2] (setting [7]) it was 19.6 µM. Besides, the CC50 in “in vitro” (Co-treatment CC50) was determined as 54.4 µM; in the data set “in vitro” (Pre-treatment CC50), 24.9 µM.
As to `CN(C)CCOc1ccc(/C(=C(/CCCl)c2ccccc2)c2ccccc2)cc1` [Toremifene (Citrate)], the IC50 in data set [2] (read-out: IC50) was found to be 5.53 µM. In data set [2] (read-out: IC90), the concentration for an effect of 90% (IC90) amounted to 86.5 µM.
On to `CCN(CC)CCOc1ccc(C(=C(Cl)c2ccccc2)c2ccccc2)cc1` [Clomiphene], for which the “survival benefit for infected mice” value in the data set on Ebola virus is listed as 90%.
On to `CN1CCN(CCCN2c3ccccc3Sc3ccc(C(F)(F)F)cc32)CC1.Cl.Cl` [Trifluoperazine (dihydrochloride)], for which the “cytotoxicity compared with the other selected drugs” value in the data set with BHK21-hACE2 cells is “more serious cytotoxic than other drugs”. For the same molecule, in data set [2] (read-out: IC50), the half-inhibitory concentration (IC50) amounted to 5.44 µM. Besides, in data set [2] (read-out: IC90), the IC90 is < 50 µM and 27.3 µM.
In data set [2] (Pseudovirus, 12 h), `CN(C)c1ccc2nc3ccc(=[N+](C)C)cc-3sc2c1` [Methylene Blue] returned an IC50 of 9.05 µM and a 90% effect concentration (IC90) of 70.5 µM.
For `CN1C[C@@H]2c3ccccc3Oc3ccc(Cl)cc3[C@H]2C1.Cl` (racemic) [Asenapine (hydrochloride)], the IC90 in data set [1] was found to be 43 µM; in data set [2] (read-out: IC90) it was 76.4 µM. Moreover, in the data set on BHK21-hACE2 cells (at the concentration of 100 μM), the cell cytotoxicity entry is “no obvious cell cytotoxicity was observed”.
Consider `Br.Cc1ccc(Sc2ccccc2N2CCNCC2)c(C)c1` [Vortioxetine (hydrobromide)], for which, in data set [1], the 50% inhibitory concentration (IC50) amounted to 28.1 µM, the IC90 is 62.8 µM and the “inhibitory effect relative to Chloroquine diphosphate” value is on record as “slightly less effective”. Also, in data set [2] (read-out: IC50), the concentration for half-maximal inhibition (IC50) was found to be 6.99 µM. In data set [2] (read-out: IC90), the IC90 was < 50 µM and 44.6 µM.
